According to patent publication US20040006236A1, “Diaminopropionic acid derivatives” (priority 1999, published 2004):

Assays:
[1] = target: T1, ICAM-1 binding to immobilized Mac-1 (Homo sapiens, UniProt P05107+P11215); assay: Mac-1/ICAM-1 screening assay (solid-phase ELISA); conditions: read-out: Mac-1/ICAM-1 Protein-Protein Assay IC50
T1 construct: made in house; host or cells: transfected 293 cells (Mac-1)
Method in brief: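 Competitive solid-phase ELISA: membrane Mac-1 from transfected 293 cells coated at 3 μg/mL in 20 mM Hepes pH 7.2/0.14 M NaCl/1 mM MnCl2; compounds (0.12 nM-20 μM, 1:4 series) plus 5dICAM-Ig (40 μg/mL, added) 2 h at 37° C. Bound ICAM-Ig detected with HRP anti-human IgG Fc, TMB, A450; IC50 reported.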

[2] = test system: T lymphocyte proliferation (C57BI/6 spleen cells with irradiated BALB/c spleen cells); assay: Mixed lymphocyte reaction (MLR), one-way; assay type: cell-based, mice; conditions: Mus musculus, T-lymphocyte; read-out: MLR IC50
Method in brief: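 One-way murine MLR: C57BI/6 responder splenocytes proliferate against irradiated BALB/c stimulators while exposed to serially diluted antagonists in supplemented RPMI1640 for 3 days. Proliferation read as [3H]-thymidine uptake over a final 6 h pulse (0.5 μCi/well), scintillation counted.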

[3] = test system: cell-surface Mac-1 adhesion to immobilized fibrinogen (HL-60 cells); assay: Mac-1/Fibrinogen cell-based screening assay; design: species or system human; conditions: Homo sapiens, HL-60, HL-60 cells; read-out: Mac-1/Fgn Cell based Assay IC50
Method in brief: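 Wells coated with fibrinogen and blocked with PVP. Labeled HL-60 cells (2×10^6 cells/mL in RPMI/0.05% BSA/0.2 mM MnCl2) preincubated with DMSO-diluted compounds for 10 min at 37° C, then left to adhere 30 min at 37° C/5% CO2. Unbound cells washed off with TBS.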

T1 sequence (P05107 23-769, other chains not shown): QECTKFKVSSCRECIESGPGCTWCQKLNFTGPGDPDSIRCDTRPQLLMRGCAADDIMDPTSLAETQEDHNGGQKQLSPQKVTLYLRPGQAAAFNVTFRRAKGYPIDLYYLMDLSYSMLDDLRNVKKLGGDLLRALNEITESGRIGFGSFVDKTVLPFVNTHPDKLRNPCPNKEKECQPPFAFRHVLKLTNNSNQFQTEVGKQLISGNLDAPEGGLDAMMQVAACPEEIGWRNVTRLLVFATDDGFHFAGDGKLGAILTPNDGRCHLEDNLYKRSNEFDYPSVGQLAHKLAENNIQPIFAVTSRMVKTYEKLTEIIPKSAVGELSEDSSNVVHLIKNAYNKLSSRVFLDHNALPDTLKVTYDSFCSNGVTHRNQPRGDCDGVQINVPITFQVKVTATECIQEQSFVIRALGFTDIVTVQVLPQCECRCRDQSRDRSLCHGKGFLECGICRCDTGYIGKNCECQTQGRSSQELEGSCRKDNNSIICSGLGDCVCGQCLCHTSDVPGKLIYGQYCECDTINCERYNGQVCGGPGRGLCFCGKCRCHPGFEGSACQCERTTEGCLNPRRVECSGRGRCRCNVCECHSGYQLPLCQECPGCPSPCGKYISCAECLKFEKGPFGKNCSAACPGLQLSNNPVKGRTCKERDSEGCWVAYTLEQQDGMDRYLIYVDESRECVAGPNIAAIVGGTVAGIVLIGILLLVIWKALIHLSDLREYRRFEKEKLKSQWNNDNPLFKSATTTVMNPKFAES

| IC50 [1] [µM] | IC50 [3] [µM] | SMILES | IC50 [2] [µM] |
| --- | --- | --- | --- |
| 0.029 | 0.711 | O=C(CSc1ccncc1)NC[C@H](NC(=O)c1ccc(C(=O)NCc2cccc(O)c2)cc1Cl)C(=O)O [Example 90] | 1.45 |
| 0.023 | 0.345 | O=C(NCc1cccc(O)c1)c1ccc(C(=O)N[C@@H](CNC(=O)c2cc3ccccc3s2)C(=O)O)c(Cl)c1 [Example 175] | 4 |
| 0.019 | 0.157 | O=C(NCc1cccc(O)c1)c1ccc(C(=O)N[C@@H](CNC(=O)c2ccc3ncsc3c2)C(=O)O)c(Cl)c1 [Example 177] | 0.95 |
| 0.019 | 0.125 | O=C(NCc1cccc(O)c1)c1ccc(C(=O)N[C@@H](CNC(=O)c2cccc3ccccc23)C(=O)O)c(Cl)c1 [Example 178] | 0.9 |
| 0.031 | 0.314 | O=C(NCc1cccc(O)c1)c1ccc(C(=O)N[C@@H](CNC(=O)c2ccc3ccccc3c2)C(=O)O)c(Cl)c1 [Example 179] | 5.4 |
| 0.417 | 4.85 | O=C(NCc1cccc(O)c1)c1ccc(C(=O)N[C@@H](CNC(=O)c2c3c(nc4ccccc24)CCCC3)C(=O)O)c(Cl)c1 [Example 190] |  |
| 0.016 | 0.063 | O=C(NCc1cccc(O)c1)c1ccc(C(=O)N[C@@H](CNC(=O)[C@@H]2CCCN2)C(=O)O)c(Cl)c1 [Example 196] | 5.5 |
|  | 0.012 | Cc1cc(C(=O)NCc2cccc(O)c2)cc(C)c1C(=O)N[C@@H](CNC(=O)c1cc(F)cc(F)c1)C(=O)O [Example 337, N-[2,6-dimethyl-4-[[[(3-hydroxyphenyl)methyl]amino]carbonyl]benzoyl]-3-(3,5-difluorobenzoylamino)-L-alanine] | 0.059 |
|  | 0.0031 | Cc1cc(C(=O)NCc2cccc(O)c2)cc(Cl)c1C(=O)N[C@@H](CNC(=O)c1ccsc1)C(=O)O [Example 339, N-[2-chloro-4-[[[(3-hydroxyphenyl)methyl]amino]carbonyl]-6-methylbenzoyl]-3-[(thiophene-3-carbonyl)amino]-L-alanine] | 0.029 |
|  | 0.0062 | Cc1cc(C(=O)NCc2cccc(O)c2)cc(Cl)c1C(=O)N[C@@H](CNC(=O)c1cc(F)cc(F)c1)C(=O)O [Example 340, N-[2-chloro-4-[[[(3-hydroxyphenyl)methyl]amino]carbonyl]-6-methylbenzoyl]-3-[(3,5-difluorobenzoyl)amino]-L-alanine] | 0.036 |
|  | 0.001 | O=C(NCc1cccc(O)c1)c1cc(Cl)c(C(=O)N[C@@H](CNC(=O)c2cccs2)C(=O)O)c(Cl)c1 [Example 342, N-[2,6-dichloro-4-[[[(3-hydroxyphenyl)methyl]amino]carbonyl]benzoyl]-3-[(thiophene-2-carbonyl)amino]-L-alanine] | 0.027 |
|  | 0.0017 | O=C(NCc1cccc(O)c1)c1cc(Cl)c(C(=O)N[C@@H](CNC(=O)c2ccsc2)C(=O)O)c(Cl)c1 [Example 343, N-[2,6-dichloro-4-[[[(3-hydroxyphenyl)methyl]amino]carbonyl]benzoyl]-3-[(thiophene-3-carbonyl)amino]-L-alanine] | 0.03 |
|  | 0.0048 | O=C(NCc1cccc(O)c1)c1cc(Cl)c(C(=O)N[C@@H](CNC(=O)c2cc(F)cc(F)c2)C(=O)O)c(Cl)c1 [Example 344, N-[2,6-dichloro-4-[[[(3-hydroxyphenyl)methyl]amino]carbonyl]benzoyl]-3-[(3,5-difluorobenzoyl)amino]-L-alanine] | 0.034 |
|  | 0.0003 | O=C(NCc1cccc(O)c1)c1cc(Cl)c(C(=O)N[C@@H](CNC(=O)c2cc(O)cc(O)c2)C(=O)O)c(Cl)c1 [Example 345, N-[2,6-dichloro-4-[[[(3-hydroxyphenyl)methyl]amino]carbonyl]benzoyl]-3-(3,5-dihydroxybenzoylamino)-L-alanine] | 0.002 |
